Common to all, as to test: NCI anticancer screen, dose series, 48 h
For experiment [1], the system named is UO-31 renal.
Experiment [2] deals with ACHN renal.
Experiment [3] concerns OVCAR-3 ovarian.
Experiment [4] has as its system SK-MEL-5 melanoma.
In experiment [5] the test system is A498 renal.
The subject of experiment [6] is NCI-H226 lung.
The subject of experiment [7] is TK-10 renal.
Experiment [8] concerns LOX IMVI melanoma.
Experiment [9] relates to SR leukemia.
Experiment [10] relates to T-47D breast.

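How tested: cells in 96-well plates exposed to compound for 48 hours at five concentrations. GI50 marks 50% less growth. At the TGI there is no net growth.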

In the case of `CCc1ccccc1-n1c2nc(=O)n(C)c(=O)c-2nc2ccccc21`, the TGI in [1] turned out to be 48.2 µM; in [2] it was 16.3 µM; in experiment [3] it was 6.79 µM; in [4] it was 16.8 µM; in experiment [5] it was 32.5 µM; in experiment [6], 36.4 µM. In addition, the TGI in experiment [7] is 35.4 µM.
For `O=C(/C=C/c1c(O)ccc2ccccc12)c1cccc2ccccc12`, the TGI in experiment [1], in [2], in experiment [8], in [3], in experiment [9] and in experiment [4] was greater than 100 µM throughout. Also, the TGI in experiment [5], in [6] and in experiment [7] was greater than 100 µM throughout.
Consider `O=C(CCc1ccccc1)On1nnc2ccccc2c1=O`, for which the TGI in experiment [1], in [2], in [8], in experiment [3], in experiment [9] and in experiment [4] was greater than 100 µM in each case. In addition, the TGI is greater than 100 µM in [5], greater than 100 µM in [6] and 96.2 µM in [7].
In the case of `COc1cc(/C=C2\CC3C4CC=C5C[C@@H](N6CCCC6)CC[C@]5(C)C4CC[C@]3(C)[C@H]2OC(C)=O)ccc1OCCN1CCCCC1` (some centres not stated), the GI50 in experiment [1] is 1.46 µM; in [2] it was 1.91 µM; in [10], 2.25 µM; in experiment [8], 1.03 µM; in experiment [3], 1.64 µM; in experiment [4] it was 1.53 µM. The results for the GI50 in experiment [5], in experiment [6] and in experiment [7] were 1.76 µM, 2.14 µM and 0.211 µM, respectively. For the same compound, the TGI in [1] is 2.83 µM; in experiment [2], 3.73 µM; in experiment [10] it was 3.98 µM; in [8], 2.57 µM; in experiment [3], 3.34 µM; in experiment [4], 2.87 µM. For the same compound, the figures for the TGI in experiment [5], in [6] and in [7] were 3.41 µM, 4.21 µM and 1.49 µM, respectively.
For `COc1ccc2c(c1OC)-c1c(c3ccc([N+](=O)[O-])cc3c(=O)n1CCCN=[N+]=[N-])C2=O`, the GI50 was 3.5 µM in experiment [1]; 3.63 µM in experiment [2]; 5.29 µM in [10]; 5.99 µM in [8]; 56.1 µM in experiment [3]; 12.2 µM in [4]. Further, the GI50 in [5] was 82.3 µM; in experiment [6], 22.8 µM; in [7], greater than 100 µM. In addition, the TGI was greater than 100 µM in experiment [1]; 22.1 µM in experiment [2]; greater than 100 µM in experiment [10]; greater than 100 µM in experiment [8]; greater than 100 µM in [3]; greater than 100 µM in experiment [4]. The TGI in experiment [5] was greater than 100 µM; in experiment [6], 99.3 µM; in experiment [7], greater than 100 µM.
Regarding `COc1ccc2[nH]c(-c3cccc(N(C)C)c3)cc(=O)c2c1`, the GI50 was 0.633 µM in experiment [1]; 0.599 µM in experiment [8]; 0.305 µM in [4]; 0.581 µM in experiment [6]; 19.8 µM in experiment [7]. Besides, the TGI is greater than 100 µM in experiment [1]; greater than 100 µM in [2]; 0.368 µM in experiment [3]; 1.73 µM in experiment [9]; greater than 100 µM in experiment [7].
Take `COc1ccc(/C(Cl)=C(\C=O)c2ccc(Br)cc2)cc1OC`: the TGI in experiment [1], in experiment [2], in experiment [8], in experiment [3], in [4] and in experiment [5] was greater than 100 µM in each case. For the same compound, the TGI in experiment [6] and in [7] was greater than 100 µM throughout.
`COc1ccc(OC)c(-c2cc(-c3ccccc3)nn2-c2ccc(S(N)(=O)=O)cc2)c1`: the GI50 in [1] is 17.8 µM; in [2], 8.01 µM; in [3], 5.91 µM; in [9], 2.82 µM; in experiment [4] it was 16.5 µM; in [6], 15 µM. The GI50 in experiment [7] was 12.7 µM. The TGI was 50.4 µM in experiment [1]; 19.7 µM in experiment [2]; 19 µM in experiment [3]; greater than 100 µM in [9]; 31.3 µM in experiment [4]; 33.6 µM in [6]. Also, the TGI in [7] is 26 µM.
Take `Cc1ccc(S(=O)(=O)NC(CCC(=O)Nc2ccccc2)C(=O)Nc2ccccc2)cc1` (configuration not stated): the GI50 in experiment [1] is 0.274 µM; in experiment [10], 0.206 µM; in experiment [3], 0.419 µM; in [4], 0.226 µM; in experiment [5], 0.142 µM; in experiment [6], 0.447 µM. Also, the TGI in experiment [1] was determined as 3.39 µM; in experiment [10], 0.934 µM; in experiment [3] it was 1.35 µM; in [4], 0.656 µM; in experiment [5], 0.897 µM; in experiment [6], 2.59 µM.
For `O=C1OC(c2ccccc2)=N/C1=C\c1c(O)cc(O)cc1O`, the TGI in [1], in experiment [2], in experiment [8], in [3], in [4] and in experiment [5] was greater than 100 µM throughout. Further, the TGI in experiment [7] was greater than 100 µM.
For `Cc1cccc2c1Oc1cc(Cl)ccc1C2NC(=O)CN(C)C` (configuration not stated), the TGI in [1] is greater than 100 µM; in experiment [2], greater than 100 µM; in experiment [8], greater than 100 µM; in experiment [9], greater than 100 µM; in [4] it was 49.3 µM; in experiment [6], greater than 100 µM. The same compound gave a TGI in experiment [7] greater than 100 µM.
As for `O=C(N/C(=C\c1ccc(Br)cc1)c1nc2ccccc2s1)c1ccccc1`, the TGI in [1], in experiment [2], in [8], in [3], in experiment [4] and in experiment [5] was greater than 100 µM each time. For the same compound, the TGI in experiment [6] and in experiment [7] was greater than 100 µM each time.
With `Cc1[nH]c(=O)nc(CC(O)(c2ccccc2)c2ccccc2)c1-c1ccccc1`, the TGI in experiment [1], in experiment [2], in [8], in experiment [3], in experiment [4] and in [5] was greater than 100 µM each time. Further, the TGI in experiment [6] and in experiment [7] was greater than 100 µM in each case.
Take `CCN(CC)CCCCCOc1cc(O)c2c(=O)cc(-c3ccccc3)oc2c1`: the GI50 in experiment [1] was 1.85 µM; in experiment [2], 3.72 µM; in [8] it was 1.57 µM; in experiment [3], 1.93 µM; in experiment [4], 1.91 µM; in [5], 2.46 µM. In addition, the GI50 in experiment [6] is 10.5 µM; in [7] it was 7.1 µM. Also, the TGI in experiment [1] is 3.64 µM; in experiment [2], 11.7 µM; in experiment [8], 2.96 µM; in experiment [3], 4.94 µM; in experiment [4], 3.83 µM; in experiment [5] it was 9.48 µM. For the same compound, the TGI in [6] was 25.8 µM; in experiment [7] it was 27.1 µM.
Turning to `CCOC(=O)C1=C(NC(C)(C)C)OCC1=O`, the TGI in [1], in [2], in experiment [8], in [3], in experiment [9] and in [6] was greater than 100 µM in each case. For the same compound, in experiment [7], the TGI is greater than 100 µM.
In the case of `O=C(Nc1cccc(C(F)(F)F)c1)c1cccc(NC2=C(Cl)C(=O)N(Cc3ccccc3)C2=O)c1`, the GI50 in experiment [1] was 11.7 µM; in [2] it was 15.8 µM; in experiment [10], 6.28 µM; in [8] it was 3.92 µM; in experiment [3] it was 8 µM; in experiment [4], 18 µM. Also, the GI50 was 40.3 µM in experiment [5], 4.51 µM in [6] and 19.5 µM in [7]. The TGI in [1] was greater than 100 µM; in experiment [2] it was 85.2 µM; in experiment [10], 89.9 µM; in experiment [8], 57.5 µM; in experiment [3], greater than 100 µM; in [4], 38.2 µM. For the same compound, the TGI in experiment [5] is 90.7 µM; in experiment [6] it was 65.5 µM; in experiment [7] it was greater than 100 µM.
As to `CN(/N=C/c1ccnc2ccccc12)c1ccc([N+](=O)[O-])cc1[N+](=O)[O-]`, the TGI in experiment [1], in [2], in experiment [8], in [3], in experiment [4] and in experiment [5] was greater than 100 µM throughout. In addition, the TGI in experiment [6] and in experiment [7] was greater than 100 µM in each case.
Consider `COc1ccc(NC(=O)Nc2ccc(Nc3nc(C)cc(Nc4ccc(C)cc4)n3)cc2)cc1`, for which the GI50 in experiment [1] is 1.48 µM; in [2], 1.75 µM; in experiment [10], 1.78 µM; in experiment [8] it was 1.79 µM; in experiment [3], 1.35 µM; in [4], 1.6 µM. The values for the GI50 in [5] and in [7] were 7.29 µM and 1.68 µM, respectively. Besides, the TGI in [1] came out at 2.82 µM; in experiment [2] it was 3.13 µM; in experiment [10], 4.24 µM; in experiment [8], 3.35 µM; in experiment [3], 2.81 µM; in experiment [4] it was 2.96 µM. The TGI in experiment [5] came to 18.8 µM; in experiment [7], 3.06 µM.
Take `O=C(CCC(=O)N/N=C/c1ccccc1O)N/N=C/c1ccccc1O`: the TGI in experiment [1], in experiment [3], in [9], in [4], in experiment [6] and in experiment [7] was greater than 100 µM each time.
For `COC1(OC)CC2C(=O)N(Cc3ccccc3)C1CC2S(=O)(=O)c1ccccc1` (configuration not stated), the TGI in [1], in experiment [2], in [8], in experiment [3], in [4] and in [6] was greater than 100 µM in each case. Moreover, the TGI in experiment [7] was greater than 100 µM.
As to `CCOC(=O)CC1=NC(=Nc2cc(Cl)ccc2Cl)SC1`, the TGI in experiment [1], in experiment [2], in [8], in experiment [3], in experiment [4] and in [5] was greater than 100 µM each time. The TGI in experiment [6] and in [7] was greater than 100 µM in each case.
On to `CCOC(=O)c1cc2cc(NC(=O)c3cc4cc([N+](=O)[O-])ccc4n3C)ccc2n1C`, for which the GI50 in experiment [1] was greater than 100 µM; in experiment [2] it was 13.5 µM; in [10], 42 µM; in experiment [8], 13.1 µM; in experiment [3] it was 31.7 µM; in experiment [4] it was 74 µM. The GI50 in [6] is 12 µM; in [7], 19.7 µM. The TGI is greater than 100 µM in experiment [1]; 31.9 µM in experiment [2]; greater than 100 µM in experiment [10]; 28 µM in experiment [8]; greater than 100 µM in experiment [3]; greater than 100 µM in experiment [4]. Moreover, the TGI in experiment [6] turned out to be 46.6 µM; in [7], 70.7 µM.
On to `COc1cc2nc(-c3ccc(-n4cncc4-c4ccc(N)cc4)cc3)sc2c(OC)c1OC`, for which the GI50 in experiment [1] is 1.55 µM; in experiment [2] it was 8.56 µM; in experiment [10], 1.59 µM; in [8] it was 3.65 µM; in [3] it was 2.73 µM; in [4] it was 2.74 µM. Moreover, the GI50 was 2.13 µM in [5], 4.73 µM in experiment [6] and 4.93 µM in experiment [7]. Besides, the TGI in experiment [1] is 6.87 µM; in [2], greater than 100 µM; in [10], 6.71 µM; in experiment [8] it was greater than 100 µM; in experiment [3], 15.1 µM; in experiment [4], greater than 100 µM. The TGI in [5] was greater than 100 µM; in [6] it was 40.6 µM; in experiment [7], greater than 100 µM.
For the compound `C[C@H]1COC2(c3ccccc3)CCC(=O)N12` (some centres not stated), the TGI in [2], in experiment [8], in experiment [3], in experiment [9], in experiment [4] and in [5] was greater than 100 µM throughout. The compound also registered a TGI in experiment [7] greater than 100 µM.
For the compound `CCc1ccc(/C(C)=N/NC(N)=S)cc1`, the TGI in [1], in experiment [3], in experiment [9], in experiment [4] and in experiment [7] was greater than 100 µM each time.
